Structures can show the parent of a compound that is named as a salt.
Assay: Particle size distribution (Sympatec) of spray dried, ultrasound treated particles
Assay type: physicochemical
From the text: Preferably the active particles of the invention have a volume diameter of less than 10 μm, more preferably at least 90 wt % of the active ingredient particles in a given composition have a diameter equal to or lower than 10 μm as determined by measuring the characteristic equivalent sphere diameter, known as volume diameter, by laser diffraction as described above, preferably using a Malvern or equivalent apparatus. The parameters taken into consideration are the volume diameters (VD) in microns of 10%, 50% and 90% of the particles expressed as d(10), d(50) and d(90), respectively, which correspond to the mass diameter assuming a size independent density for the particles.
Fenoterol hydrobromide (5 g) was dissolved in 100 mL of methanol. The samples of Fenoterol hydrobromide powder collected in the ultrasonic chamber were produced using a Büchi-290 laboratory-scale spray dryer (Büchi, Switzerland). The solution was atomized using nitrogen at 7 bar flowing at approximately at 10 Lpm (Liter/minute). The aspirator was set at 100% and flow rate of solution was set to […]. The gas temperature was set to 120° C. Fenoterol hydrobromide particles were collected from both the cyclone separator and the PTFE bag filter assembly. The resultant amorphous particles contained 3000 ppm (0.3% w/w) residual methanol. The particles were placed into an ultrasonic chamber fitted with a 20 kHz ultrasonic transducer on its base (Prosonix SL 10) as shown in FIG. 8. The chamber was heated to 40° C. using a thermoregulated water jacket. Ultrasound at 20 W power was applied between 30 minutes and 2 hour. The resulting particles were characterized by optical microscopy and DSC (Differential Scanning Calorimetry). The size of the particles were typically in the range of 1-7 μm. In this specific example d(10)=0.91 μm; d(50)=1.76 μm; d(90)=3.38 μm (see FIG. 4).

[1] = spray dried particles after dry powder ultrasound treatment, FIG. 4

## CC(Cc1ccc(O)cc1)NCC(O)c1cc(O)cc(O)c1 (stereo not shown) [Fenoterol hydrobromide]
Spray dried particles after dry powder ultrasound treatment (20 kHz, 20 W, 40° C., 30 minutes to 2 hour), typical range
  size of the particles: 1-7 μm
[1]
  d(10): 0.91 μm
  d(50): 1.76 μm
  d(90): 3.38 μm

Reference: US8771744B2, “Barrier composition” (Prosonix Limited, priority 2009, dated 2014)
